In BindingDB's records for doi:10.1007/s10822-022-00478-x (Roche Innovation Center Basel, F. Hoffmann-La Roche Ltd., 2022):

Molecular target: cAMP and cAMP-inhibited cGMP 3',5'-cyclic phosphodiesterase 10A (Homo sapiens, UniProt Q9Y233)
Test: PDE10A assay
Procedure, shortened: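 Human PDE10A (2 ng/well) preincubated 15 min RT with compound in HEPES pH 7.5, 10 mM MgCl2, BSA, then reacted 15 min with 50 nM [3H]cGMP/cGMP substrate. Stopped with Y-Si SPA beads; bound radioactivity counted, IC50 from four-parameter logistic, pIC50 = −log10(IC50).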

IC50	SMILES
2940 nM	Cn1cc(-c2ccccc2)nc1COc1cnc(Br)c(C(=O)Nc2cncnc2)n1 [Roche-Dataset for PDE10A, Compound 716]
284 nM	CCN(C)c1nc2cc(NC(=O)c3c(C(=O)O)cnn3C)ccn2n1 [Roche-Dataset for PDE10A, Compound 717]
148 nM	O=C(NCc1ccc2c(c1)CCO2)c1nc(C2CC2)cnc1Nc1cncnc1 [Roche-Dataset for PDE10A, Compound 718]
8860 nM	Cn1ncc(C(=O)N2CCOCC2)c1C(=O)Nc1cn(-c2cccc(C(F)(F)F)n2)cn1 [Roche-Dataset for PDE10A, Compound 719]
177 nM	Cc1ncc(C)n2nc(/C=C/c3nc(C)n(-c4ccccc4)n3)nc12 [Roche-Dataset for PDE10A, Compound 720]
9.47 nM	CC(C)Oc1cccc(NC(=O)c2nc(C3CC3)cnc2Nc2cncnc2)c1 [Roche-Dataset for PDE10A, Compound 721]
7590 nM	CSc1ncc(Br)c(C(=O)Nc2cc(-c3ccccn3)nn2C)n1 [Roche-Dataset for PDE10A, Compound 723]
46 nM	O=C(Nc1cccc(N2CCCCC2=O)c1)c1nc(C2CC2)cnc1Nc1cncnc1 [Roche-Dataset for PDE10A, Compound 724]
433 nM	Cc1cnc(C)n2nc(CCc3nc(NCCCCl)nn3C)nc12 [Roche-Dataset for PDE10A, Compound 725]
3340 nM	Cc1ccc(C)c(C(=O)Nc2cc(-c3ccccn3)nn2C)n1 [Roche-Dataset for PDE10A, Compound 726]
59 nM	O=C(NCc1cnn(-c2ccccc2)n1)c1nc(C2CC2)cnc1Nc1cncnc1 [Roche-Dataset for PDE10A, Compound 727]
2560 nM	O=C(NCCN1CCOCC1=O)c1nc(C2CC2)cnc1Nc1cncnc1 [Roche-Dataset for PDE10A, Compound 728]
67 nM	O=C(Nc1ccnc(C(=O)N2CCCCC2)c1)c1nc(C2CC2)cnc1Nc1cncnc1 [Roche-Dataset for PDE10A, Compound 730]
10000 nM	Cc1cc(C(=O)Nc2cc3[nH]c(-c4ccccc4)nc3cc2C(F)(F)F)n(C)n1 [Roche-Dataset for PDE10A, Compound 731]
18 nM	O=C(Nc1ccc(N2CCCC2=O)cc1)c1nc(C2CC2)ccc1Nc1cncnc1 [Roche-Dataset for PDE10A, Compound 733]
8.52 nM	O=C(Nc1cccc(S(=O)(=O)CCO)c1)c1nc(C2CC2)cnc1Nc1cncnc1 [Roche-Dataset for PDE10A, Compound 734]
71 nM	CN1CCN(c2cccc(NC(=O)c3nc(C4CC4)cnc3Nc3cncnc3)c2)CC1 [Roche-Dataset for PDE10A, Compound 741]
1630 nM	CCn1nc(NC(=O)c2c(C(=O)N3CCC3)cnn2C)cc1-c1cccc(Cl)c1 [Roche-Dataset for PDE10A, Compound 744]
6550 nM	COc1nc2cc(NC(=O)c3c(C(=O)N4CCC4)cnn3C)ccn2n1 [Roche-Dataset for PDE10A, Compound 745]
3450 nM	O=C(NCCS(=O)(=O)c1ccccc1)c1nc(C2CC2)cnc1Nc1cncnc1 [Roche-Dataset for PDE10A, Compound 746]
1150 nM	CN(C)C(=O)c1cc(NC(=O)c2nc(C3CC3)ccc2Nc2cncnc2)[nH]n1 [Roche-Dataset for PDE10A, Compound 748]
711 nM	O=C(N[C@@H]1C[C@H]1c1ccccc1)c1nc(C2CC2)cnc1Nc1cncnc1 [Roche-Dataset for PDE10A, Compound 749]
4500 nM	O=C(Nc1cc(-c2ccccc2)no1)c1ccc2cc(-c3ccccc3)nn2c1 [Roche-Dataset for PDE10A, Compound 752]
27 nM	Cc1c(Cl)cc(Cl)c2nc(CCc3cn4c(n3)SCC4)nn12 [Roche-Dataset for PDE10A, Compound 760]
1450 nM	CCOC(=O)c1cnn(C)c1C(=O)Nc1ccn2nc(C(C)C)nc2c1 [Roche-Dataset for PDE10A, Compound 761]
115 nM	Cc1c(Cl)cc(C(F)(F)F)c2nc(/C=C/c3nc(Br)nn3C)nn12 [Roche-Dataset for PDE10A, Compound 764]
